# Experimental data taken from US5026832A, “9-dihydro-9-O-alkyldesmycosin derivatives” (Toyo Jozo Co., Ltd., priority 1988, dated 1991).
# Read-outs that look alike come from different tables or passages of the source.
# Key:
# [1] = test system: Staphylococcus aureus Smith; experiment: Antimicrobial activity (minimum inhibitory concentration); type: cell-based; conditions: about 10^6 /ml
# Procedure: (§1) Minimum inhibitory concentrations (MIC, μg/ml) of various compounds of formula (I) against various microorganisms (about 10^6 /ml) were measured.
# [2] = test system: Staphylococcus pyogenes N.Y.5; experiment: as above; type: cell-based; conditions: Staphylococcus pyogenes N.Y.5, about 10^6 /ml
# Procedure: as §1
# [3] = test system: Staphylococcus aureus FDA 209P JC-1; experiment: as above; type: cell-based; conditions: FDA209P; Staphylococcus aureus FDA 209P JC-1, about 10^6 /ml
# Procedure: as §1
# [4] = test system: Staphylococcus pyogenes S-23; experiment: as above; type: cell-based; conditions: Staphylococcus aureus, S23; Staphylococcus pyogenes S-23, about 10^6 /ml
# Procedure: as §1
# [5] = test system: Staphylococcus aureus MS 353 C36; experiment: as above; type: cell-based; conditions: MS353C36; Staphylococcus aureus MS 353 C36, about 10^6 /ml
# Procedure: as §1
# [6] = test system: Staphylococcus epidermidis sp-al-1; experiment: as above; type: cell-based; conditions: SPAL1; Staphylococcus epidermidis sp-al-1, about 10^6 /ml
# Procedure: as §1
# [7] = test system: Staphylococcus pyogenes 1022; experiment: as above; type: cell-based; conditions: Staphylococcus pyogenes 1022, about 10^6 /ml
# Procedure: as §1
# [8] = test system: Staphylococcus aureus MS 353; experiment: as above; type: cell-based; conditions: MS353; Staphylococcus aureus MS 353, about 10^6 /ml
# Procedure: as §1
# [9] = test system: Staphylococcus pyogenes S-23; experiment: Infectious disease curing effect by oral administration in infected mice; type: in vivo, ICR male mice; conditions: Staphylococcus aureus
# Procedure: A pre-incubated test microorganism, Staphylococcus pyogenes S-23, was suspended in a 5% mucin solution and inoculated into the ICR male mice (8 mice per group) abdomen in an amount of 2×10^2. After 1 hour, Compounds (I) of the present invention dissolved or suspended in a phosphate buffer were orally administered to the mice. The mice were inspected for 5 days to determine ED50 (mg/kg) by the Van der Waerden method.
# [10] = S23, 120 h, oral, 1 hour after abdominal inoculation of Staphylococcus pyogenes S-23, inspected for 5 days, Van der Waerden method, read-out: ED50
SMILES,MIC [1] [µg/mL],MIC [2] [µg/mL],MIC [3] [µg/mL],MIC [4] [µg/mL],MIC [5] [µg/mL],MIC [6] [µg/mL],MIC [7] [µg/mL],MIC [8] [µg/mL],"ED50 [9, 10] [mg/kg]","ED50 ([9]; S23, po, 120 h) [mg/kg]"
"CCC1OC(=O)CC(OC(C)=O)C(C)C(OC2OC(C)CC(N(C)C)C2O)C(CC=O)CC(C)C(OC)C=CC(C)=CC1COC1OC(C)C(O)C(OC)C1OC (centres unmarked) [Compound 13, 9-dihydro-9-O-methyl-3-O-acetyl-4'-deoxydesmycosin]",0.39,0.1,0.2,0.1,0.2,0.39,> 100,0.2,,
"CCCOC1C=CC(C)=CC(COC2OC(C)C(O)C(OC)C2OC)C(CC)OC(=O)CC(OC(C)=O)C(C)C(OC2OC(C)C(O)C(N(C)C)C2O)C(CC=O)CC1C (centres unmarked) [Compound 9, 9-dihydro-9--O-propyl-3-O-acetyldesmycosin]",0.78,0.2,0.39,0.2,0.78,0.78,> 100,0.39,,
"CCC1OC(=O)CC(O)C(C)C(OC2OC(C)CC(N(C)C)C2O)C(CC=O)CC(C)C(OC)C=CC(C)=CC1COC1OC(C)C(O)C(OC)C1OC (centres unmarked) [Compound 6, 9-dihydro-9-O-methyl-4'-deoxydesmycosin]",0.39,≤ 0.05,0.1,≤ 0.05,0.2,0.1,,0.2,64.8,
"CCOC1C=CC(C)=CC(COC2OC(C)C(O)C(OC)C2OC)C(CC)OC(=O)CC(OC(=O)CC)C(C)C(OC2OC(C)C(O)C(N(C)C)C2O)C(CC=O)CC1C (centres unmarked) [Compound 10, 9-dihydro-9-O-ethyl-3-O-propionyldesmycosin]",0.78,0.1,0.2,0.39,0.39,0.78,> 100,0.39,,
"CCCOC1C=CC(C)=CC(COC2OC(C)C(O)C(OC)C2OC)C(CC)OC(=O)CC(O)C(C)C(OC2OC(C)C(O)C(N(C)C)C2O)C(CC=O)CC1C (centres unmarked) [Compound 3, 9-dihydro-9-O-propyldesmycosin]",0.39,≤ 0.05,0.1,0.1,0.2,0.2,> 100,0.2,,
"CCC1OC(=O)CC(O)C(C)C(OC2OC(C)C(O)C(N(C)C)C2O)C(CC=O)CC(C)C(=O)C=CC(C)=CC1COC1OC(C)C(O)C(OC)C1OC (centres unmarked) [Desmycosin, 4'-demycarosyltylosin]",0.39,≤ 0.05,0.2,≤ 0.05,0.2,0.2,> 100,0.2,,
"CCC1OC(=O)CC(O)C(C)C(OC2OC(C)CC(N(C)C)C2O)C(CC=O)CC(C)C(=O)C=CC(C)=CC1COC1OC(C)C(O)C(OC)C1OC (centres unmarked) [4'-Deoxydesmycosin, reference compound]",,,,,,,,,> 200,
"CCC1OC(=O)CC(O)C(C)C(OC2OC(C)C(O)C(N(C)C)C2O)C(CC=O)CC(C)C(OCC2CCC2)C=CC(C)=CC1COC1OC(C)C(O)C(OC)C1OC (centres unmarked) [Compound 15, 9-dihydro-9-O-cyclobutylmethyldesmycosin]",0.78,≤ 0.05,0.39,0.2,0.39,0.78,50,0.39,,
"CCOC1C=CC(C)=CC(COC2OC(C)C(O)C(OC)C2OC)C(CC)OC(=O)CC(O)C(C)C(OC2OC(C)C(O)C(N(C)C)C2O)C(CC=O)CC1C (centres unmarked) [Compound 2, 9-dihydro-9-O-ethyldesmycosin]",0.2,≤ 0.05,0.1,≤ 0.05,0.1,0.1,> 100,0.2,,
"CCCOC1C=CC(C)=CC(COC2OC(C)C(O)C(OC)C2OC)C(CC)OC(=O)CC(OC(=O)CC)C(C)C(OC2OC(C)C(O)C(N(C)C)C2O)C(CC=O)CC1C (centres unmarked) [Compound 11, 9-dihydro-9-O-propyl-3-O-propionyldesmycosin]",0.78,0.1,0.2,0.2,0.39,0.39,100,0.2,,
"CCC1OC(=O)CC(O)C(C)C(OC2OC(C)C(O)C(N(C)C)C2O)C(CC=O)CC(C)C(OCc2ccccc2)C=CC(C)=CC1COC1OC(C)C(O)C(OC)C1OC (centres unmarked) [Compound 18, 9-dihydro-9-O-benzyldesmycosin]",0.39,0.1,0.2,0.1,0.2,0.39,100,0.2,,
"CCCCOC1C=CC(C)=CC(COC2OC(C)C(O)C(OC)C2OC)C(CC)OC(=O)CC(O)C(C)C(OC2OC(C)C(O)C(N(C)C)C2O)C(CC=O)CC1C (centres unmarked) [Compound 4, 9-dihydro-9-O-butyldesmycosin]",0.78,0.1,0.39,0.2,0.39,0.39,> 100,0.39,,
"CCC1OC(=O)CC(O)C(C)C(OC2OC(C)C(O)C(N(C)C)C2O)C(CC=O)CC(C)C(OCC2CCCCC2)C=CC(C)=CC1COC1OC(C)C(O)C(OC)C1OC (centres unmarked) [Compound 16, 9-dihydro-9-O-cyclohexylmethyldesmycosin]",1.56,0.39,0.78,0.39,0.78,1.56,50,0.39,,
"CCC1OC(=O)CC(O)C(C)C(OC2OC(C)C(O)C(N(C)C)C2O)C(CC=O)CC(C)C(OCC2CC2)C=CC(C)=CC1COC1OC(C)C(O)C(OC)C1OC (centres unmarked) [Compound 14, 9-dihydro-9-O-cyclopropylmethyldesmycosin]",0.39,0.1,0.2,≤ 0.05,0.2,0.2,> 100,0.2,,
"CC[C@H]1OC(=O)C[C@@H](O)[C@H](C)[C@@H](O[C@@H]2O[C@H](C)[C@@H](O[C@H]3C[C@@](C)(O)[C@@H](O)[C@H](C)O3)[C@H](N(C)C)[C@H]2O)[C@@H](CC=O)C[C@@H](C)C(=O)/C=C/C(C)=C/[C@@H]1CO[C@@H]1O[C@H](C)[C@@H](O)[C@@H](OC)[C@H]1OC [Tylosin, reference compound]",,,,,,,,,,> 200
"CCC1OC(=O)CC(OC(C)=O)C(C)C(OC2OC(C)C(O)C(N(C)C)C2O)C(CC=O)CC(C)C(OC)C=CC(C)=CC1COC1OC(C)C(O)C(OC)C1OC (centres unmarked) [Compound 12, 9-dihydro-9-O-methyl-3-O-acetyldesmycosin]",0.39,0.1,0.2,0.1,0.2,0.39,> 100,0.2,,
"CCC1OC(=O)CC(O)C(C)C(OC2OC(C)C(O)C(N(C)C)C2O)C(CC=O)CC(C)C(OCC(C)C)C=CC(C)=CC1COC1OC(C)C(O)C(OC)C1OC (centres unmarked) [Compound 17, 9-dihydro-9-O-isobutyldesmycosin]",0.78,0.1,0.39,0.2,0.39,0.39,> 100,0.39,,
